Assay results as given in ChEMBL document CHEMBL5143547, “Antimycobacterial and anti-inflammatory activities of thiourea derivatives focusing on treatment approaches for severe pulmonary tuberculosis” (Bioorg Med Chem, 2022).
Active and inactive are the calls of the source. The calls are words filed in the database; no cut-off is given here.

Columns and labels:
[1] = tested on: Mycobacterium tuberculosis; assay: Antitubercular activity against Mycobacterium tuberculosis H37Rv assessed as reduction in microbial growth after 5 days by MTT assay; format: functional; conditions: 120 h, time 5 day
RAW264.7 [2] = assay: Inhibition of NO production in mouse RAW264.7 cells incubated for 24 hrs by Griess reagent based analysis; format: functional, cell-based; conditions: RAW264.7, 24 h
[3] = Selectivity index, ratio of CC50 for cytotoxicity against LPS-stimulated mouse RAW264.7 cells to MIC50 for antitubercular activity against Mycobacterium tuberculosis H37Rv; format: toxicity, cell-based; conditions: LPS-stimulated RAW264.7 cells, read-out: Selectivity Index
[4] = Cytotoxicity against LPS-stimulated mouse RAW264.7 cells after 24 hrs by MTT assay; format: toxicity, cell-based; conditions: LPS-stimulated RAW264.7 cells
[5] = tested on: Mycobacterium tuberculosis; assay: Antitubercular activity against Mycobacterium tuberculosis M299 assessed as reduction in microbial growth after 5 days by MTT assay; format: functional, organism-based; conditions: M299, 120 h
RAW264.7 [6] = assay: Anti-inflammatory activity against LPS-stimulated mouse RAW264.7 cells assessed as reduction in TNFalpha protein expression level at 12.5 uM after 24 hrs by ELISA; format: functional, cell-based
[7] = tested on: Mycobacterium tuberculosis; assay: Antitubercular activity against Mycobacterium tuberculosis M299 infected in mouse RAW264.7 cells assessed as reduction in intracellular microbial growth after 4 days followed by cell lysis and measured after 21 days; format: functional; conditions: M299, 96 h, time 4 day
[8] = Selectivity index, ratio of CC50 for cytotoxicity against LPS-stimulated mouse RAW264.7 cells to MIC50 for antitubercular activity against Mycobacterium tuberculosis M299; format: toxicity, cell-based; conditions: LPS-stimulated RAW264.7 cells, read-out: Selectivity Index
[9] = tested on: Mycobacterium tuberculosis; assay: Antitubercular activity against Mycobacterium tuberculosis H37Rv infected in mouse RAW264.7 cells assessed as reduction in microbial growth after 4 days followed by cell lysis and measured after 21 days; format: functional; conditions: 96 h, time 4 day
RAW264.7 [10] = assay: Anti-inflammatory activity against LPS-stimulated mouse RAW264.7 cells assessed as reduction in iNOS protein expression level at 100 uM after 24 hrs by immunoblot analysis relative to control; format: functional
RAW264.7 [11] = assay: Anti-inflammatory activity against LPS-stimulated mouse RAW264.7 cells assessed as reduction in IL1beta protein expression level after 24 hrs by ELISA; format: functional, cell-based; conditions: RAW264.7, 24 h
RAW264.7 [12] = assay: Anti-inflammatory activity against LPS-stimulated mouse RAW264.7 cells assessed as reduction in TNFalpha protein expression level after 24 hrs by ELISA; format: functional, cell-based; conditions: RAW264.7, 24 h

Compound | MIC50 [1] [µM] | IC50 (RAW264.7 [2]) [µM] | selectivity ratio [3] | CC50 at 24 h [4] [µM] | IC50 [5] [µM] | inhibition (RAW264.7 [6]) | MIC50 [7] [µM] | selectivity ratio [8] | MIC50 [9] [µM] | inhibition at 100 µM (RAW264.7 [10]) [%] | IC50 (RAW264.7 [11]) [µM] | IC50 (RAW264.7 [12]) [µM]
CCN(CC)C(=S)NCc1ccccc1 | 40.2 | 15.7 | > 4.9 | ≥ 200 |  |  |  |  |  |  |  | 
O=C(C1CCCO1)N1CCN(C(=S)NCc2ccccc2)CC1 (stereo not drawn) | 24.9 | ≥ 200 | > 8 | ≥ 200 |  |  |  |  |  |  |  | 
COc1cc(NC(=S)NC#N)cc(OC)c1OC | 184 | 3.9 | > 1.1 | ≥ 200 |  |  |  |  |  |  |  | 
CC(C)NC(=S)NCc1ccccc1 | 57.8 | ≥ 200 | > 3.5 | ≥ 200 |  |  |  |  |  |  |  | 
CNC(=N)NCCC[C@H](N)C(=O)O [TILARGININE ACETATE] |  | 78.3 |  |  |  |  |  |  |  |  |  | 
S=C(NCc1ccccc1)N1CCN(Cc2ccc3c(c2)OCO3)CC1 | 8.5 | 110 | 15.9 | 136 |  |  |  |  |  |  |  | 
CN(C[C@H](O)[C@@H](O)[C@H](O)[C@H](O)CO)C(=S)NCc1ccccc1 | 134 | ≥ 200 | 0.8 | 104 |  |  |  |  |  |  |  | 
CO[C@H]1/C=C/O[C@@]2(C)Oc3c(C)c(O)c4c(O)c(c(/C=N/N5CCN(C)CC5)c(O)c4c3C2=O)NC(=O)/C(C)=C\C=C\[C@H](C)[C@H](O)[C@@H](C)[C@@H](O)[C@@H](C)[C@H](OC(C)=O)[C@@H]1C [RIFAMPIN] | 0.2 |  |  |  | 1.2 |  |  |  |  |  |  | 
COc1cc(NC(=S)NCCc2ccccc2)cc(OC)c1OC | 8.6 | 4.1 | > 25 | ≥ 200 | 24.8 | Active | 12.9 | ≥ 8.1 | 7.7 | ≤ 100 | 80.2 | 15.3
S=C(Nc1ccccc1)N1CCN(c2ccccc2Cl)CC1 | 37.3 | ≥ 200 | 0.8 | 30.5 |  |  |  |  |  |  |  | 
S=C(NCc1ccccc1)Nc1ccc2c(c1)OCO2 | 132 | 24.8 | > 1.5 | ≥ 200 |  |  |  |  |  |  |  | 
O=C(NNC(=S)NCc1ccccc1)c1ccccc1 | 33.7 | ≥ 200 | 1.3 | 42.1 |  |  |  |  |  |  |  | 
CCCCNC(=S)NCc1ccccc1 | 160 | 143 | 1.1 | 177 |  |  |  |  |  |  |  | 
S=C(NCCc1ccccc1)N1CCOCC1 | ≥ 200 | ≥ 200 | > 1 | ≥ 200 |  |  |  |  |  |  |  | 
S=C(NCCc1ccccc1)N1CCN(c2ccccn2)CC1 | 12.6 | ≥ 200 | 3.2 | 40.6 |  |  |  |  |  |  |  | 
S=C(NCCc1ccccc1)N1CCN(c2nc3ccccc3[nH]2)CC1 | 20 | ≥ 200 | 1.7 | 33.7 |  |  |  |  |  |  |  | 
OCCN(CCO)C(=S)Nc1ccccc1 | ≥ 200 | 50.7 | > 1 | ≥ 200 |  |  |  |  |  |  |  | 
S=C(Nc1ccccc1)N1CCN(c2ncccn2)CC1 | 127 | ≥ 200 | > 1.6 | ≥ 200 |  |  |  |  |  |  |  | 
CCN(CC)C(S)=NCCc1ccccc1 | 17.6 | ≥ 200 | 4.9 | 87.3 |  |  |  |  |  |  |  | 
S=C(Nc1ccccc1)Nc1ccc(Br)cc1 | 28.9 | 1.9 | 0.9 | 27.1 |  |  |  |  |  |  |  | 
S=C(NCCc1ccccc1)N1CCN(c2ncccn2)CC1 | 34.9 | ≥ 200 | 1.2 | 40.6 |  |  |  |  |  |  |  | 
S=C(NCc1ccccc1)Nc1ccc2c(c1)OCCO2 | 2 | 13.7 | > 100 | ≥ 200 | 11.3 | Active | 19.4 | ≥ 17.7 | 4.8 | ≤ 100 | 33.2 | 20.7
O=C(C1CCCO1)N1CCN(C(=S)Nc2ccccc2)CC1 (stereo not drawn) | 23.3 | 187 | > 8.6 | ≥ 200 |  |  |  |  |  |  |  | 
